Reference: patent publication US20040127519A1 (Pharmacia Corporation, priority 2002, published 2004)

molecular target: Recombinant MAPKAPK2 (Homo sapiens, UniProt P49137); test: Determination of MK-2 IC50 (HSP-peptide phosphorylation, anion exchange resin capture assay); type: biochemical; conditions: MK-2 Avg. IC50, Table 2, tricyclic aminocyanopyridine MK-2 inhibitors
Method: The phosphorylation of HSP-peptide ([…]) by MAPKAPK2 was measured using an anion exchange resin capture assay method. […] The reaction was terminated and [γ^33P]ATP was removed from solution by the addition of 150 μl of AG 1×8 ion exchange resin in 900 mM sodium formate pH 3.0. A 50 μl aliquot of head volume was removed from the quenched reaction mixture and added to a 96-well plate, 150 μl of Microscint-40 (Packard) was added and the amount of phosphorylated-peptide was determined. Allow the Microscint to sit in the plates for 60 minutes prior to counting.
Compounds are evaluated as potential inhibitors of the MK2 kinase by measuring their effects on MK2 phosphorylation of the peptide substrate. Compounds may be screened initially at two concentrations prior to determination of IC50 values. Screening results are expressed as percent inhibition at the concentrations of compound tested. For IC50 value determinations, compounds are tested at six concentrations in ten-fold serial dilutions with each concentration tested in triplicate. Results are expressed as IC50 values in micromolar. The assay is performed at a final concentration of 2% DMSO.

Recombinant MAPKAPK2, sequence (P49137 whole entry, species assumed): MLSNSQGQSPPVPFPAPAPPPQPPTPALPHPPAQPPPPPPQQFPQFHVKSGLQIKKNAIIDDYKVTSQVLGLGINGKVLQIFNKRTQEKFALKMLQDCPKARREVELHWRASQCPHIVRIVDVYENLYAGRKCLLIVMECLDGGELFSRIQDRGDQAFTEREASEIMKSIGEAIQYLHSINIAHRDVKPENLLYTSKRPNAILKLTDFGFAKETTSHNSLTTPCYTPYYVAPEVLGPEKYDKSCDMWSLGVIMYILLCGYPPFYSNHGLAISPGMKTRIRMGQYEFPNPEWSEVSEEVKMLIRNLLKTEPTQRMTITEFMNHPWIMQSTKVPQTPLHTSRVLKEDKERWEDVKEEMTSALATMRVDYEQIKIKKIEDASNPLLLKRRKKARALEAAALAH

In order of falling IC50:
1. N#Cc1c(N)nc2c(c1N)Cc1cc(O)ccc1S2 [Example 51]  17.4 µM
2. CCCNc1c(C#N)c(N)nc2c1Cc1cc(OC)c(OC)cc1O2 [Example 50]  15.6 µM
3. N#Cc1c(N)nc2c(c1N)Cc1cc(Br)ccc1O2 [Example 49]  15.1 µM
4. N#Cc1c(N)nc2c(c1N)Cc1cc(N)ccc1S2(=O)=O [Example 48]  14.4 µM
5. COc1cc2c(cc1OC)Oc1nc(N)c(C#N)c(NCCN)c1C2 [Example 46]  11.5 µM
6. CC(C)(C)OC(=O)COc1cc2c(cc1OCC(=O)OC(C)(C)C)Oc1nc(N)c(C#N)c(N)c1C2 [Example 45]  10.3 µM
7. CCOCCNc1c(C#N)c(N)nc2c1Cc1ccc(OCCOCC)cc1O2 [Example 44]  9.66 µM
8. C=CCOc1cc2c(cc1OCC=C)Oc1nc(N)c(C#N)c(N)c1C2 [Example 43]  9.6 µM
9. N#Cc1c(N)nc2c(c1N)Cc1ccc(CN3CCCCC3)c(O)c1O2 [Example 42]  8.28 µM
10. COc1ccc(Nc2c(C#N)c(N)nc3c2Cc2cc(OC)c(OC)cc2O3)cc1 [Example 40]  6.11 µM
11. CCNc1c(C#N)c(N)nc2c1Cc1ccc(OCC)cc1O2 [Example 37]  4.76 µM
12. N#Cc1c(N)nc2c(c1N)C(C(C#N)C#N)c1cc(O)ccc1O2 (stereo not drawn) [Example 35]  4.22 µM
13. COc1ccc2c(c1)Oc1nc(N)c(C#N)c(N)c1C2 [Example 34]  3.24 µM
14. COc1ccc(Nc2c(C#N)c(N)nc3c2Cc2cc(OC)c(OC)cc2O3)cc1 [Example 33]  2.98 µM
15. N#Cc1c(N)nc2c(c1N)Cc1cccc([N+](=O)[O-])c1O2 [Example 32]  2.58 µM
16. N#Cc1c(N)nc2c(c1N)Cc1cc(OCCN)c(OCCN)cc1O2 [Example 31]  2.55 µM
17. COc1cc(N)cc2c1Oc1nc(N)c(C#N)c(N)c1C2 [Example 29]  1.79 µM
18. CN(C)CCOc1ccc2c(c1)Oc1nc(N)c(C#N)c(N)c1C2 [Example 28]  1.75 µM
19. COc1ccc2c(c1)Oc1nc(N)c(C#N)c(N)c1C2 [Example 27]  1.72 µM
20. CNc1c(C#N)c(N)nc2c1Cc1cc(OC)c(OC)cc1O2 [Example 26]  1.69 µM
21. N#Cc1c(N)nc2c(c1N)Cc1ccc(OCCN3CCCC3)cc1O2 [Example 25]  1.68 µM
22. COc1cccc2c1Oc1nc(N)c(C#N)c(N)c1C2 [Example 24]  1.37 µM
23. N#Cc1c(N)nc2c(c1N)Cc1ccc(OCC(=O)O)cc1O2 [Example 23]  0.916 µM
24. N#Cc1c(N)nc2c(c1N)Cc1cc(C(=O)O)ccc1O2 [Example 20]  0.857 µM
25. N#Cc1c(N)nc2c(c1N)Cc1ccc(O)c(O)c1O2 [Example 21]  0.857 µM
26. N#Cc1c(N)nc2c(c1N)Cc1ccc(OCCN)cc1O2 [Example 19]  0.82 µM
27. COc1ccc2c(c1O)Oc1nc(N)c(C#N)c(N)c1C2 [Example 15]  0.682 µM
28. CCOCCOc1cc2c(cc1O)Cc1c(nc(N)c(C#N)c1N)O2 [Example 14]  0.62 µM
29. N#Cc1c(N)nc2c(c1N)Cc1cc(N)ccc1O2 [Example 12]  0.514 µM
30. N#Cc1c(N)nc2c(c1N)Cc1ccc(OCCO)cc1O2 [Example 10]  0.483 µM

same assay, conditions: MK-2 Avg. IC50, Table I, aminocyanopyridine MK-2 inhibitors

In order of rising IC50:
1. N#Cc1c(N)nc2c(c1-c1cccc(F)c1F)CCc1[nH]ncc1-2 [Example 3]  1.95 µM
2. N#Cc1c(N)nc2c(c1-c1ccco1)CCc1cc(C(=O)O)ccc1-2 [Example 5]  2.35 µM
3. N#Cc1c(-c2c[nH]c(C(N)=O)c2)cc(-c2ccco2)nc1N [Example 6]  2.41 µM
4. N#Cc1c(N)nc2c(c1-c1ccccc1)CCc1n[nH]cc1-2 [Example 7]  2.73 µM
5. Cn1cnc(-c2cc(-c3ccco3)nc(N)c2C#N)c1 [Example 8]  2.88 µM
6. N#Cc1c(N)nc2c(c1-c1ccco1)CCc1cc(O)ccc1-2 [Example 10]  3.48 µM
7. N#Cc1c(N)nc2c(c1-c1c(F)cccc1F)CCc1[nH]ncc1-2 [Example 11]  3.59 µM
8. N#Cc1c(-c2cnc[nH]2)cc(-c2ccc(O)cc2)nc1N [Example 12]  3.62 µM
9. N#Cc1c(-c2ccccc2F)cc(-c2ccco2)nc1N [Example 13]  4.06 µM
10. N#Cc1c(-c2ccccc2F)cc(-c2ccco2)nc1N [Example 14]  4.41 µM
11. N#Cc1c(N)nc2c(c1-c1ccccc1F)CCc1ccccc1-2 [Example 15]  4.47 µM
12. N#Cc1c(-c2ccco2)cc(-c2ccc(C(=O)O)cc2)nc1N [Example 16]  4.63 µM
13. N#Cc1c(-c2cnc[nH]2)cc(-c2ccco2)nc1N [Example 17]  4.94 µM
14. N#Cc1c(N)nc2c(c1-c1nnc[nH]1)CCc1cc(C(=O)O)ccc1-2 [Example 19]  5.74 µM
15. N#Cc1c(-c2cnc[nH]2)cc(-c2cccc(O)c2)nc1N [Example 20]  5.81 µM
16. N#Cc1c(-c2cnc[nH]2)cc(-c2ccco2)nc1N [Example 21]  5.95 µM
17. N#Cc1c(N)nc2c(c1N)CC(C(F)(F)F)O2 (stereo not drawn) [Example 23]  6.14 µM
18. N#Cc1c(N)nc2c(c1-c1ccco1)CCc1c[nH]cc1-2 [Example 24]  6.2 µM
19. N#Cc1c(-c2ccccc2F)cc(-c2ccc(C(=O)O)cc2)nc1N [Example 25]  6.4 µM
20. N#Cc1c(N)nc2c(c1-c1ccco1)CCc1cnccc1-2 [Example 26]  6.48 µM
21. N#Cc1c(-c2ccccc2F)cc(-c2ccc(O)c(O)c2)nc1N [Example 27]  7.54 µM
22. Cn1cnc(-c2cc(-c3ccccc3)nc(N)c2C#N)c1 [Example 28]  7.63 µM
23. N#Cc1c(-c2ccco2)cc(-c2cc[nH]n2)nc1N [Example 29]  7.72 µM
24. N#Cc1c(-c2cnc[nH]2)cc(-c2ccc(C(=O)O)cc2)nc1N [Example 30]  8.37 µM
25. N#Cc1c(N)nc2c(c1-c1cccc(F)c1)CCc1n[nH]cc1-2 [Example 31]  8.5 µM
26. N#Cc1c(-c2ccccc2F)cc(-c2ccc(O)c(O)c2)nc1N [Example 32]  9.2 µM
27. CS(=O)(=O)Nc1ccc(-c2cc(-c3ccco3)c(C#N)c(N)n2)cc1 [Example 33]  9.27 µM
28. N#Cc1c(N)nc2c(c1-c1ccco1)CCc1[nH]ccc1-2 [Example 34]  9.4 µM
29. N#Cc1c(-c2cnc[nH]2)cc(-c2ccccc2)nc1N [Example 35]  9.4 µM
30. N#Cc1c(N)nc2c(c1-c1ccco1)CCc1ccccc1-2 [Example 36]  9.42 µM
31. COc1ccc(-c2cc(-c3cnc[nH]3)c(C#N)c(N)n2)cc1 [Example 37]  9.43 µM
32. N#Cc1c(-c2ccco2)cc(-c2cn[nH]c2)nc1N [Example 39]  11.6 µM
33. COc1ccc(-c2c(C#N)c(N)nc3c2CCc2[nH]ncc2-3)cc1 [Example 40]  12 µM
34. N#Cc1c(N)nc2c(c1-c1ccc(F)cc1)CCc1n[nH]cc1-2 [Example 42]  12.9 µM
35. N#Cc1c(N)nc2c(c1-c1nnc[nH]1)CCc1ccccc1-2 [Example 43]  13.1 µM
36. N#Cc1c(N)nc2c(c1N)CC(CCl)O2 (stereo not drawn) [Example 44]  13.4 µM
37. N#Cc1c(-c2cnc[nH]2)cc(-c2ccccc2)nc1N [Example 45]  14.2 µM
38. N#Cc1c(-c2ccco2)cc(-c2ccc(S(N)(=O)=O)cc2)nc1N [Example 46]  16.1 µM
39. N#Cc1c(-c2ccco2)cc(-c2ccc(B(O)O)cc2)nc1N [Example 47]  16.7 µM
40. COc1ccc(-c2cc(-c3nnc[nH]3)c(C#N)c(N)n2)cc1 [Example 48]  17.3 µM
41. N#Cc1c(-c2ccccc2F)cc(-c2ccoc2)nc1N [Example 49]  17.9 µM
42. CSc1cc(-c2ccco2)nc(N)c1C#N [Example 50]  22.5 µM
